Results from publication PMC8404199, “Structure–Activity Relationships of Triple-Action Platinum(IV) Prodrugs with Albumin-Binding Properties and Immunomodulating Ligands” (Journal of Medicinal Chemistry, 2021).
Where two headings read alike, the source gives them in different places.

Experiments:
[1] = system: CT26 colon cancer allografts; experiment: Anticancer activity against CT26 allografts in Balb/c mice; type: in vivo; settings: iv, equimolar to 9 mg/kg oxaliplatin; for anticancer activity against CT26 tumors (in words): twice a week for 2 weeks
Protocol: Every day, the animals were monitored for body weight and the enhanced stress level, and the tumor size was measured using a caliper according to the formula length × width^2/2.

[2] = Organ distribution of platinum in SKOV3-bearing SCID mice; settings: 24 h after single iv dose equimolar to 9 mg/kg oxaliplatin
Protocol: For tissue digestion, approx. 25–50 mg of tissue was weighed into perfluoralkoxy tubes, and 2 mL of HNO3 and 100 μL H2O2 (30%, Suprapur, Merck, Darmstadt, Germany) were added. The solutions were placed on a hot plate and heated up for 7 h using a temperature program with a maximum of 200 °C. The liquids were transferred to 15 mL tubes with the remaining solution being removed by washing twice with 4 mL of ultrapure water.
Platinum concentrations were measured using an Agilent 7800 ICP-QMS instrument (Agilent Technologies, Tokyo, Japan) equipped with an Agilent SPS 4 autosampler (Agilent Technologies, Tokyo, Japan) and a MicroMist nebulizer at a sample uptake rate of approx. 0.2 mL/min. […] All of the measured samples were blank corrected (for the cell culture data, wells containing no cells were used). Elemental standard solutions were purchased from Labkings (Hilversum, The Netherlands). The instrument was tuned on a daily basis.
SKOV3 cells (1.5 × 10^6 cells in 50 μL serum-free medium) were injected subcutaneously into the right flank of male SCID mice. […] Then, the animals were sacrificed by cervical dislocation, and tumors and organs were collected for the measurement with ICP–MS. For plasma isolation, blood was collected in ethylenediaminetetraacetic acid (EDTA)-coated tubes and centrifuged for 10 min at 900g at 4 °C. Plasma was transferred to a new tube and centrifuged once more to remove residual red blood cells.

[3] = system: human embryonic kidney cells (HEK293); experiment: MTT cytotoxicity assay in non-malignant HEK293 cells; type: cell-based; settings: 72 h
Protocol: (§1) The cells were seeded at 3500–6000 cells/well in 96-well plates depending on the proliferation rate of the respective cell line and allowed to recover for 24 h. Subsequently, the cells were treated at indicated concentrations for 48 or 72 h. Cells were additionally incubated with 5-fold equimolar concentrations of ascorbic acid to increase the reduction rate of the compounds. Cell viability was measured by the MTT-based vitality assay (EZ4U; Biomedica, Vienna, Austria), following the manufacturer’s recommendations.

[4] = system: human hepatic cell line (WRL68); experiment: MTT cytotoxicity assay in non-malignant WRL68 cells; type: cell-based; settings: 72 h
Protocol: as §1

[5] = system: murine CT26 colon cancer cells; experiment: MTT cytotoxicity assay in CT26 cells; type: cell-based
Protocol: (§2) Cells were additionally incubated with 5-fold equimolar concentrations of ascorbic acid to increase the reduction rate of the compounds. Cell viability was measured by the MTT-based vitality assay (EZ4U; Biomedica, Vienna, Austria), following the manufacturer’s recommendations.

[6] = system: VM7 melanoma cancer cells; experiment: MTT cytotoxicity assay in VM7 cells; type: cell-based, human; settings: 72 h
Protocol: as §1

[7] = system: human HCT116 colon cancer cells; experiment: MTT cytotoxicity assay in HCT116 cells; type: cell-based
Protocol: as §2

[8] = log D7.4 determination by shake flask method and ICP-MS; type: physicochemical; settings: n-octanol/phosphate buffer pH 7.4, Pt by ICP-MS
Protocol: 50 mM stock solutions of the succinimide complexes in DMF were diluted in phosphate buffer (20 mM, pH 7.4, pre-saturated with n-octanol) to a final concentration of 50 μM drug and 0.1% DMF. The platinum content of these aqueous solutions was measured by ICP–MS (see above). The solutions were mixed 1:1 with n-octanol and shaken on a 360° rotatable rack for 3 h. The solutions were centrifuged for 5 min (860g, RT), the aqueous layers were carefully removed, and their Pt content was measured by ICP–MS. Experiments were performed and measured in duplicates, and averages were used for further calculations. log D7.4 values were calculated by the following equation [drawing 1]

human SKOV3 cancer cells = experiment: MTT cytotoxicity assay in SKOV3 cells; type: cell-based; settings: 72 h incubation
Protocol: as §1

SKOV3 cell lysates = experiment: Reduction and 1-MDT release in SKOV3 lysates; type: in vitro ADME, human; settings: 100 μM, 37 °C
Protocol: SKOV3 cells were grown in four T225 […] cell culture flasks to reach a high cell number. On the day of cell lysate isolation, cells were washed with PBS, scraped from the surface, and centrifuged. Each cell pellet was lysed in ∼160 μL lysis buffer (15 mM NaCl 0.5% Triton X, ultrapure) and incubated on ice for 1 h. The samples were then centrifuged for 15 min at 14,000 rpm (4 °C), and the cleared lysate was pooled and kept at −80 °C until analysis. Cell lysates were treated with 2 mM stock solutions of respective complexes in 4% DMF and phosphate buffer (100 mM, pH 7.4) to obtain a final compound concentration of 100 μM and incubated at 37 °C. After 0, 4, 24, and 72 h, three volume equivalents of cold MeOH were added to sample aliquots. Samples were stored at 4 °C for 10 min and centrifuged (15,080g, 4 °C, 10 min). LC–MS analysis of the supernatant was performed on an Agilent 1260 Infinity system using a Waters Atlantis T3 column (150 mm × 4.6 mm) and absorption detection at 230 nm, coupled to a Bruker amaZon SL ESI-IT mass spectrometer. Milli-Q water, containing 0.1% formic acid, and acetonitrile, containing 0.1% formic acid, were used as eluents. A gradient of 1–99% acetonitrile in 20 min was used.

[9] = UHPLC reduction experiments with L-ascorbic acid; type: physicochemical; settings: 1 mM complex, 10-fold excess AA, phosphate buffer pH 7.4, 1% DMF, 20 °C
Protocol: The platinum(IV)–succinimide complexes were dissolved in 2% DMF in phosphate buffer (500 mM, pH 7.4) to a final concentration of 2 mM. The solutions were then mixed 1:1 with a 20 mM stock of L-ascorbic acid in phosphate buffer (500 mM, pH 7.4) to obtain final concentrations of 1 mM complex, 10 mM L-ascorbic acid, and 1% DMF. The samples were incubated at 20 °C and measured on a Dionex UltiMate 3000 RS UPLC system with a Waters Acquity UPLC BEH C18 column (3 × 50 mm, pore size 1.7 μm) and absorption detection at 220 nm. Data points were taken at t = 0 and every 30 min for 6 h.

SKOV3 cancer cells = experiment: Long-term cytotoxicity assay (crystal violet) in SKOV3 cells; type: cell-based, human; settings: 168 h, crystal violet stain, mean ± SD
Protocol: SKOV3 cells were seeded in duplicates at 5000 cells/well in 24-well plates and allowed to recover for 24 h. Subsequently, the cells were treated at the indicated concentrations for 168 h. Cells were fixed with ice-cold methanol (20 min at 4 °C), washed with PBS, and stained with crystal violet. Subsequently, colony formation was inspected, and the fluorescence signal was detected using Typhoon Trio imager (GE Healthcare, Little Chalfont, UK) at 610/30 nm BP and analyzed by ImageJ software.

albumin = molecular target: T1, albumin (Bos taurus, UniProt P02769); experiment: SEC-ICP-MS albumin binding and serum stability in fetal calf serum; type: in vitro ADME; settings: FCS + 150 mM phosphate buffer pH 7.4, 37 °C
T1 construct: FCS was purchased from Sigma-Aldrich and buffered with 150 mM phosphate buffer (pH 7.4); tissue Sigma-Aldrich; host or cells: fetal calf serum
T1 sequence (P02769 25-607): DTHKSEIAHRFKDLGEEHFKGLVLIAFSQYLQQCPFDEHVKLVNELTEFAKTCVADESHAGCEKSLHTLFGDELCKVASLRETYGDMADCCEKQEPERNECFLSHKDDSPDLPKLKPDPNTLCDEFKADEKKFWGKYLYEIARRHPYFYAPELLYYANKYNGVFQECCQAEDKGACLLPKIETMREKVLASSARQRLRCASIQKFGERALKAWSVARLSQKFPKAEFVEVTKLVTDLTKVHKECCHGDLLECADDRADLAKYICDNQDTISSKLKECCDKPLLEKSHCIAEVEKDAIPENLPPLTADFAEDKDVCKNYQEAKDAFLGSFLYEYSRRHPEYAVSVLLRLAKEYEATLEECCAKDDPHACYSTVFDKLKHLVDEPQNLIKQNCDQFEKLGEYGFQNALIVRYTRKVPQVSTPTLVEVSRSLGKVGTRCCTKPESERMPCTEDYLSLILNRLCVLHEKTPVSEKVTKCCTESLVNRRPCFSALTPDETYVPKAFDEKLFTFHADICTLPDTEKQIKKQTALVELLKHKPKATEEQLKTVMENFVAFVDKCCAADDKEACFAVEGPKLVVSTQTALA
Protocol: FCS was purchased from Sigma-Aldrich and buffered with 150 mM phosphate buffer (pH 7.4) to guarantee a stable pH. The maleimide-bearing platinum(IV) complexes were dissolved in 10% DMF in 150 mM phosphate buffer (pH 7.4) to 1 mM and diluted 1:10 in serum to obtain a final concentration of 100 μM. The samples were then incubated in the autosampler at 37 °C for 24 h and analyzed every 1 h. Between each sample, a pure water blank was measured. For SEC–ICP–MS measurements, an Agilent 1260 Infinity system coupled to an Agilent 7800 ICP–MS equipped with a dynamic reaction cell was used. Oxygen (purity 5.5, Messer Austria GmbH, Gumpoldskirchen, Austria) was used as reaction gas.

[10] = 48 h incubation, with 5 equiv AA, read-out: CT26 IC50 values +AA, mean ± SD
[11] = 48 h incubation, without AA, read-out: CT26 IC50 values, mean ± SD
[12] = 72 h incubation, with 5 eq. AA, read-out: CT26 IC50 values + 5 eq. AA, mean
[13] = 72 h incubation, without AA, read-out: CT26 IC50 values, mean
[14] = 48 h incubation, with 5 equiv AA, read-out: HCT116 IC50 values +AA, mean ± SD
[15] = 48 h incubation, without AA, read-out: HCT116 IC50 values, mean ± SD
[16] = 72 h incubation, with 5 eq. AA, read-out: HCT116 IC50 values + 5 eq. AA, mean
[17] = 72 h incubation, without AA, read-out: HCT116 IC50 values, mean
[18] = with 5 eq. AA, read-out: SKOV3 IC50 values + 5 eq. AA, mean
[19] = without AA, read-out: SKOV3 IC50 values, mean

Row | SMILES | anticancer activity against CT26 tumors (in words) [1] | platinum levels in blood plasma [2] | IC50 [3] | IC50 [4] | IC50 [5, 10] | IC50 [5, 11] | IC50 [5, 12] | IC50 [5, 13] | IC50 [6] | IC50 [7, 14] | IC50 [7, 15] | IC50 [7, 16] | IC50 [7, 17] | IC50 (human SKOV3 cancer cells; [18]) | IC50 (human SKOV3 cancer cells; [19]) | ratio (IC50 without AA / with AA), CT26 ([5]; 48 h) | ratio (IC50 without AA / with AA), CT26 ([5]; 72 h) | IC50 (SKOV3 cancer cells) | ratio (IC50 without AA / with AA), HCT116 ([7]; 48 h) | ratio (IC50 without AA / with AA), HCT116 ([7]; 72 h) | other results
1 | Cn1cc(C[C@@H](NC(=O)[O][Pt]2([O]C(=O)NCCCCCN3C(=O)C=CC3=O)[O]C(=O)C(=O)[O]2)C(=O)O)c2ccccc21.N[C@@H]1CCCC[C@H]1N [MalCa/IdoCa, (OC-6-24)-[(R)-(1-Carboxy-2-(1-methyl-1H-indol-3-yl)ethyl)carbamato][(1R,2R)-1,2-cyclohexanediamino][5-(2,5-dioxo-2,5-dihydro-1H-pyrrol-1-yl)pentylcarbamato]oxalatoplatinum(IV)] | significant anticancer activity | 6.4 mg/kg | – | – | – | – | – | – | – | – | – | – | – | – | – | – | – | – | – | – | activity directly compared to oxaliplatin: tumor growth and overall survival [1]: superior to oxaliplatin; Platinum ratio tumor:kidney ([2]; ratio of mean platinum levels): 0.5; Platinum ratio tumor:liver ([2]; ratio of mean platinum levels): 0.5
2 | Cn1cc(CC([NH3+])C(=O)[O][Pt]23([O]C(=O)CCCCCN4C(=O)C=CC4=O)([NH]C4CCCCC4[NH]2)[O]C(=O)C(=O)[O]3)c2ccccc21.O=C([O-])C(F)(F)F [MalEs/IdoEs, (OC-6-44)-[(R)-2-Ammonio-3-(1-methyl-1H-indol-3-yl)propanoato][(1R,2R)-1,2-yclohexanediamino][6-(2,5-dioxo-2,5-dihydro-1H-pyrrol-1-yl)hexanoato]oxalatoplatinum(IV) Trifluoroacetate] | inactive | 3.7 mg/kg | – | – | – | – | – | – | – | – | – | – | – | – | – | – | – | – | – | – | –
3 | CC(=O)[O][Pt]1([O]C(C)=O)[O]C(=O)C(=O)[O]1.N[C@@H]1CCCC[C@H]1N [OAc/OAc, reference compound] | – | – | 12.2 µM | 33.6 µM | 22.6 ± 0.16 µM | 25.7 ± 1.4 µM | 33.5 µM | 42.3 µM | 43.5 µM | 20.1 ± 1.57 µM | 26.6 ± 2.41 µM | 11.5 µM | 14.3 µM | – | – | – | – | – | – | – | –
4 | Cn1cc(CC(NC(=O)[O][Pt]23([O]C(=O)NCCCCCN4C(=O)CCC4=O)([NH]C4CCCCC4[NH]2)[O]C(=O)C(=O)[O]3)C(=O)O)c2ccccc21 [SucCa/IdoCa, (OC-6-24)-[(R)-(1-Carboxy-2-(1-methyl-1H-indol-3-yl)ethyl)carbamato][(1R,2R)-1,2-cyclohexanediamino][(5-(2,5-dioxopyrrolidin-1-yl)pentyl)carbamato]oxalatoplatinum(IV)] | – | – | 81.2 µM | > 100 µM | 38.8 ± 3.84 µM | > 100 µM | 43.6 µM | 82.5 µM | > 100 µM | 43.3 ± 2.1 µM | > 100 µM | 24.7 µM | – | > 100 µM | > 100 µM | ≥2.6 | 1.89 | 54.6 ± 14.1 µM | ≥2.3 | ≥ 4 | log D7.4 [8]: –1.49; still present as platinum(IV) species after 72 h (SKOV3 cell lysates): ~50%; complex intact after 6 h [9]: 90%; albumin binding in serum (in words) (albumin): significant binding to albumin (tR ~4 min) could be observed for any of the compounds
5 | CC(=O)[O][Pt]1([O]C(=O)NCCCCCN2C(=O)CCC2=O)[O]C(=O)C(=O)[O]1.N[C@@H]1CCCC[C@H]1N [SucCa/OAc, (OC-6-34)-Acetato[(1R,2R)-1,2-cyclohexanediamine]oxalato[(5-(2,5-dioxopyrrolidin-1-yl)pentyl)carbamato]platinum(IV)] | – | – | 50.8 µM | > 100 µM | 28.2 ± 1.81 µM | 75.21 ± 0.11 µM | 40.4 µM | 55.2 µM | > 100 µM | 34 ± 1.58 µM | > 100 µM | 21.8 µM | 42 µM | > 100 µM | > 100 µM | 2.67 | 1.37 | 29.7 ± 0.3 µM | ≥2.9 | 1.93 | –
